Columns and labels:
[1] = target: T1, glucocorticoid receptor (Homo sapiens, UniProt P04150); assay: Glucocorticoid Receptor Binding Assay ([3H]-dexamethasone, A549 cell extract); conditions: [3H]-dexamethasone binding, read-out: GR Ki
T1 construct: containing 50-200 ug of A549 cell extract and 1.86 nM [^3H]-dexamethasone; host or cells: A549 human lung epithelial cells (sonicated cell extract)
T1 sequence (P04150 1-777): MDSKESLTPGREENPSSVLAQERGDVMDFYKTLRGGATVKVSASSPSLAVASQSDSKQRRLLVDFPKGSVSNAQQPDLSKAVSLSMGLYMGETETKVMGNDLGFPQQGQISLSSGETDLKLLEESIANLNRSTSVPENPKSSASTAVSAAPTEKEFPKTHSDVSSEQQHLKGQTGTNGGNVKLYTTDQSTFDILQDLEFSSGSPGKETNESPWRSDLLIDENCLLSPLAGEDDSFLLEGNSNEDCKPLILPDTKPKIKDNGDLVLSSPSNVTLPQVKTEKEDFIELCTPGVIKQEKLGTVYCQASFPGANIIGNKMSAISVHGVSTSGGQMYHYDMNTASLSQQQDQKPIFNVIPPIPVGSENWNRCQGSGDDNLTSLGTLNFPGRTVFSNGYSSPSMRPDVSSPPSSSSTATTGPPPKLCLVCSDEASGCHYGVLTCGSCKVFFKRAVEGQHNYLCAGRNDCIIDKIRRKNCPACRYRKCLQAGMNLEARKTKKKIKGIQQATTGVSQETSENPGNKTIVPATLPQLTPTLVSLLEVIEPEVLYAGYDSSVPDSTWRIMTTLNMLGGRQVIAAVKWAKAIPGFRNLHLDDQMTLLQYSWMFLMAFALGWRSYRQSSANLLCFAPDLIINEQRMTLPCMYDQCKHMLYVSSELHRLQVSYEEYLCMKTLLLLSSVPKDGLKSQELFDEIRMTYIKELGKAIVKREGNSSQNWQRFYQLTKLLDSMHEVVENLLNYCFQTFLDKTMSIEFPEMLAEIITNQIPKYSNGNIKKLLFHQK
Procedure, shortened: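 A549 cell extract (50–200 ug) incubated with 1.86 nM [3H]-dexamethasone and test compound for 16 h at 4 °C in Tris-HCl pH 7.2 buffer with glycerol and molybdate. Unbound radioligand removed by dextran-coated charcoal, then supernatant bound counts measured by scintillation.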

[2] = target: T2, human MR (Homo sapiens, UniProt P08235); assay: Mineralocorticoid Receptor Binding Assay ([3H]-aldosterone); conditions: [3H]-aldosterone binding, human MR expressed in Sf9 cells; read-out: MR Ki
T2 construct: The full length human MR gene is cloned from a human kidney or human brain cDNA library; His tag from the pAcHLT vector (own knowledge); made in house; host or cells: Sf9 insect cells (baculovirus, pAcHLT transfer vector)
T2 sequence (P08235 1-984): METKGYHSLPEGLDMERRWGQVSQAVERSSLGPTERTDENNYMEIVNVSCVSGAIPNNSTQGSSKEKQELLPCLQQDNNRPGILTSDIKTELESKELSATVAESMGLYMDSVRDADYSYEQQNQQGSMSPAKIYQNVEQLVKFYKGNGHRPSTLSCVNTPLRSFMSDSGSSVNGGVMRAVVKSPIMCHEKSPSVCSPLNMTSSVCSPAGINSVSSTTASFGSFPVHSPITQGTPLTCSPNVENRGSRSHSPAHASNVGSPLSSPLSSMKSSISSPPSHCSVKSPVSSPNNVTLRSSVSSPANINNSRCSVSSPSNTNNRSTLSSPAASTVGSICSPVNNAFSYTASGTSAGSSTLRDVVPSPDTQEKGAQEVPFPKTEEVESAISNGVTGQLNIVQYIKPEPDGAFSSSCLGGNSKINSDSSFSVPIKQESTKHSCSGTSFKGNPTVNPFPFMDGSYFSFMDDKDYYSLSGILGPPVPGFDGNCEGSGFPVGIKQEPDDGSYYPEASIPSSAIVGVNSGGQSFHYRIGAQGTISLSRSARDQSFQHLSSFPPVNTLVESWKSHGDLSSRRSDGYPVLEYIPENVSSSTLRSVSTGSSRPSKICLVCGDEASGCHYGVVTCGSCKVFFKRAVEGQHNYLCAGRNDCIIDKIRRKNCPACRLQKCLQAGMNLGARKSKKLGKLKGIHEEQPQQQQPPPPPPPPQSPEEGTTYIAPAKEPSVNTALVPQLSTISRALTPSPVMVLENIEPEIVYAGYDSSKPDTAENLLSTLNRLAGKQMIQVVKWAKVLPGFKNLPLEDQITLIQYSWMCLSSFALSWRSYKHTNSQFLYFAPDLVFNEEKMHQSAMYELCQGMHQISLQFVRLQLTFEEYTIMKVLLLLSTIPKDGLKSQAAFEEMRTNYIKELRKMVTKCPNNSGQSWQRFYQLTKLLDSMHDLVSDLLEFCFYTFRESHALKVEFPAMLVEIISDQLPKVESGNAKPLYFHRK
Procedure, shortened: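 Lysate supernatant of Sf9 cells expressing full-length human MR (20-25 μg protein) was incubated with 0.5 nM [3H]-aldosterone and test compound in molybdate/Tris/phosphate/glycerol buffer, pH 7.5, ~16 h at 4 °C. Bound ligand was filtered and counted by scintillation; IC50 is the concentration halving [3H]-aldosterone binding.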

| Compound | Ki [1] [nM] | Ki [2] [nM] |
| --- | --- | --- |
| CS(=O)(=O)Nc1cccc(/C=C2\c3ccccc3COc3ccc(F)cc32)c1 [Example 672] | < 500 | < 500 |
| Cc1cccc2c1OCc1ccccc1/C2=C/c1cccc(NS(C)(=O)=O)c1 [Example 673] | < 500 | < 500 |
| Cc1ccc2c(c1)OCc1ccccc1/C2=C/c1cccc(NS(C)(=O)=O)c1 [Example 675] | < 500 | < 500 |
| Cc1ccc2c(c1)OCc1ccccc1/C2=C\c1cccc(NS(C)(=O)=O)c1 [Example 676] | < 500 | < 500 |
| Cc1ccc2c(c1)/C(=C\c1cccc(NS(C)(=O)=O)c1)c1ccccc1CO2 [Example 677] | < 500 | < 500 |
| COc1ccc2c(c1)/C(=C/c1cccc(NS(C)(=O)=O)c1)c1ccccc1CO2 [Example 679] | < 500 | < 500 |
| CS(=O)(=O)Nc1cccc(/C=C2/c3ccccc3COc3ccc(Cl)cc32)c1 [Example 680] | < 1000 | < 500 |
| CS(=O)(=O)Nc1cccc(/C=C2/c3ccccc3COc3cc(C(F)(F)F)ccc32)c1 [Example 682] | < 500 | < 500 |
| CS(=O)(=O)Nc1cccc(/C=C2\c3ccccc3COc3cc(C(F)(F)F)ccc32)c1 [Example 683] | < 500 | < 500 |
| COc1ccc2c(c1OC)CSc1ccccc1/C2=C/c1cccc(NS(C)(=O)=O)c1 [Example 684] | < 500 | < 500 |
| COc1ccc2c(c1OC)CSc1ccccc1/C2=C\c1cccc(NS(C)(=O)=O)c1 [Example 685] | < 500 | < 500 |
| COc1cc2c(c(OC)c1)/C(=C\c1cccc(NS(C)(=O)=O)c1)c1ccccc1SC2 [Example 687] | < 500 | < 500 |
| CC(=O)Nc1cccc(/C=C2\c3ccccc3CSc3ccccc32)c1 [Example 691] | < 500 | < 1000 |
| COc1ccc2c(c1)CSc1ccccc1/C2=C/c1cccc(NS(C)(=O)=O)c1 [Example 692] | < 500 | < 500 |
| COc1ccc2c(c1)SCc1ccccc1/C2=C\c1cccc(NS(C)(=O)=O)c1 [Example 694] | < 500 | < 500 |
| COc1cccc2c1/C(=C\c1cccc(NS(C)(=O)=O)c1)c1ccccc1SC2 [Example 696] | < 500 | < 500 |
| O=S(=O)(Nc1cccc(/C=C2\c3ccccc3CSc3ccccc32)c1)C1CC1 [Example 698] | < 500 | < 1000 |

| Compound | Ki [1] [nM] | Ki [2] [nM] |
| --- | --- | --- |
| O=S(=O)(Cc1cccc(/C=C2\c3ccccc3CSc3ccccc32)c1)c1cccc(C(F)(F)F)c1 [Example 700] | < 500 | < 500 |
| CS(=O)(=O)Nc1cccc(C=C2c3ccc(Cl)cc3CSc3cc(Cl)ccc32)c1 [Example 702] | < 10000 | < 500 |
| COc1cccc2c1/C(=C\c1cccc(NS(C)(=O)=O)c1)c1ccccc1OC2 [Example 704] | < 500 | < 500 |
| COc1ccc2c(c1)OCc1ccccc1/C2=C/c1cccc(NS(C)(=O)=O)c1 [Example 706] | < 500 | < 500 |
| COc1cccc2c1COc1ccccc1/C2=C\c1cccc(NS(C)(=O)=O)c1 [Example 707] | < 500 | < 500 |
| COc1cccc2c1COc1ccccc1/C2=C/c1cccc(NS(C)(=O)=O)c1 [Example 708] | < 500 | < 500 |
| O=c1[nH]c2cc(/C=C3/c4ccccc4COc4cc(F)ccc43)ccc2n1C1CC1 [Example 709] | < 500 | < 500 |
| O=c1[nH]c2cc(/C=C3/c4ccccc4COc4cc(F)ccc43)ccc2n1CCN1CCOCC1 [Example 712] | < 500 | < 500 |
| O=c1[nH]c2ccc(C=C3c4ccccc4OCc4c(F)cccc43)cc2[nH]1 [Example 713] | < 500 | < 500 |
| O=c1[nH]c2ccc(C=C3c4cc(F)ccc4COc4ccccc43)cc2[nH]1 [Example 714] | < 10000 | < 500 |
| O=c1[nH]c2ccc(C=C3c4cc(Cl)ccc4COc4ccccc43)cc2[nH]1 [Example 715] | < 1000 | < 500 |
| O=c1[nH]c2cc(/C=C3/c4ccc(F)cc4OCc4ncsc43)ccc2n1CCN1CCOCC1 [Example 718] | < 10000 | < 500 |
| O=S(=O)(CC(F)(F)F)Nc1cccc(C=C2c3ccc(Cl)cc3CSc3cc(Cl)ccc32)c1 [Example 721] | < 500 | < 500 |
| CS(=O)(=O)Nc1cccc(/C=C2/c3ccc(F)cc3COc3ccccc32)c1 [Example 724] | < 500 | < 500 |
| CS(=O)(=O)Nc1cccc(/C=C2\c3ccc(Cl)cc3COc3ccccc32)c1 [Example 725] | < 500 | < 500 |
| CS(=O)(=O)Nc1cccc(/C=C2/c3ccc(Cl)cc3COc3ccccc32)c1 [Example 726] | < 500 | < 500 |

More lines, now with the values ahead:

| Ki [1] [nM] | Ki [2] [nM] | Compound |
| --- | --- | --- |
| < 500 | < 500 | CS(=O)(=O)Nc1cccc(/C=C2/c3ccccc3COc3ccc(F)cc32)c1 [Example 671] |
| < 500 | < 500 | Cc1cccc2c1OCc1ccccc1/C2=C\c1cccc(NS(C)(=O)=O)c1 [Example 674] |
| < 500 | < 500 | CS(=O)(=O)Nc1cccc(/C=C2\c3ccccc3COc3ccc(Cl)cc32)c1 [Example 681] |
| < 500 | < 500 | COc1ccc(C=C2c3ccccc3CSc3ccccc32)cn1 [Example 688] |
| < 500 | < 500 | CS(=O)(=O)Nc1cccc(C=C2c3ccc(Cl)cc3CSc3ccccc32)c1 [Example 693] |
| < 500 | < 500 | Cc1cccc2c1SCc1ccccc1C2=Cc1cccc(NS(C)(=O)=O)c1 [Example 695] |
| < 500 | < 500 | OCc1cccc(/C=C2\c3ccccc3CSc3ccccc32)c1 [Example 699] |
| < 500 | < 500 | C(=C1c2ccccc2CSc2ccccc21)c1ccccc1 [Example 701] |
| < 500 | < 500 | COc1cccc2c1/C(=C/c1cccc(NS(C)(=O)=O)c1)c1ccccc1OC2 [Example 703] |
| < 500 | < 500 | COc1ccc2c(c1)COc1ccccc1/C2=C\c1cccc(NS(C)(=O)=O)c1 [Example 705] |
| < 500 | < 500 | CC(C)Cn1c(=O)[nH]c2cc(/C=C3\c4ccccc4COc4cc(F)ccc43)ccc21 [Example 710] |
| < 1000 | < 500 | CC(C)Cn1c(=O)[nH]c2cc(/C=C3/c4ccccc4COc4cc(F)ccc43)ccc21 [Example 711] |
| < 500 | < 500 | CS(=O)(=O)NCc1cccc(/C=C2\c3ccccc3CSc3ccccc32)c1 [Example 722] |
| < 500 | < 500 | CS(=O)(=O)Nc1cccc(/C=C2\c3ccc(F)cc3COc3ccccc32)c1 [Example 723] |
